Earlier results as cited in US20040034083A1, “Combination therapy for the treatment of Parkinson's disease with cyclooxygenase-2 (COX2) inhibitor(s)” (priority 2002, published 2004).

Legend:
[1] = levodopa/carbidopa therapy of PD

fraction of levodopa that reaches the brain (levodopa alone administered orally): about 1%
fraction of orally administered levodopa metabolized by decarboxylase (then unable to cross the BBB) (oral administration, without carbidopa): Up to 99%
Structure (SMILES): N[C@@H](Cc1ccc(O)c(O)c1)C(=O)O [levodopa]
duration of effectiveness after initiation of therapy [1]: about 5 years
